According to ChEMBL document CHEMBL6114969, “Ultra-short lipopeptides containing d-amino acid exhibiting excellent stability and antibacterial activity against gram-positive bacteria” (Eur J Med Chem, 2025):
Converted amounts (≈) assume the structure as drawn. The source made the active and inactive calls. No cut-off for these calls is given here.

Legend:
Staphylococcus aureus [1] = experiment: Antibacterial activity against methicillin-resistant Staphylococcus aureus ATCC 33591 infected in Balb/c mouse model of skin wound infection assessed as reduction in IL-1beta activity in skin at 10 mg/kg, ip administered thrice at 1, 24 and 48 hrs post-infection measured after 14 days by IHC analysis; assay type: functional, organism-based; settings: time 14.0 day
[2] = Hemolytic activity in mouse Red blood cells incubated for 1 hr by absorbance based analysis; assay type: toxicity, cell-based; settings: erythrocyte
Staphylococcus aureus [3] = experiment: Antibacterial activity against methicillin-resistant Staphylococcus aureus ATCC 33591 infected in Balb/c mouse model of pneumonia infection assessed as reduction in alveolar contraction in lung at 10 mg/kg, ip administered thrice at 4, 8 and 12 hrs post-infection measured after 24 hrs post-infection in presence of polymyxin B by H and E staining based analysis; assay type: functional, organism-based; settings: time 20.0 hrs
Staphylococcus aureus [4] = experiment: Induction of morphological changes in methicillin-resistant Staphylococcus aureus ATCC 33591 assessed as bacterial membrane folds at 2 times MIC incubated for 2 hrs by SEM analysis; assay type: functional, organism-based
Staphylococcus aureus [5] = experiment: Inhibition of imipenem-induced drug resistance in Staphylococcus aureus ATCC 25923 at sub-MIC measured upto 15 passages; assay type: functional, organism-based
Staphylococcus aureus [6] = experiment: Inhibition of gentamicin-induced drug resistance in methicillin-resistant Staphylococcus aureus ATCC 33591 at sub-MIC measured upto 15 passages; assay type: functional, organism-based
Staphylococcus aureus [7] = experiment: Antibacterial activity against methicillin-resistant Staphylococcus aureus ATCC 33591 assessed as bacterial growth inhibition at 0.5 to 1 times MIC incubated for 18 to 24 hrs by time-kill assay; assay type: functional, organism-based; settings: time 18-24 hrs
Staphylococcus aureus [8] = experiment: Antibacterial activity against drug-resistant methicillin-resistant Staphylococcus aureus ATCC 33591 incubated for 18 to 24 hrs; assay type: functional; settings: time 18-24 hrs
Staphylococcus aureus [9] = experiment: Bactericidal activity against methicillin-resistant Staphylococcus aureus ATCC 33591 at 4 times MIC incubated for 24 hrs in presence of >64 ug/ml phosphatidylcholine by absorbance based assay; assay type: functional, organism-based
Enterococcus faecalis = experiment: Antibacterial activity against Enterococcus faecalis ATCC 29212 incubated for 18 to 24 hrs by broth microdilution method; assay type: functional; settings: time 18-24 hrs
[10] = Toxicity in Balb/c mouse assessed as change in serum CREA level at 80 mg/kg, ip measured after 7 days; assay type: organism-based; settings: in vivo, 168 h, time 7 day
Staphylococcus aureus [11] = experiment: Antibacterial activity against methicillin-resistant Staphylococcus aureus ATCC 33591 infected in Balb/c mouse model of skin wound infection assessed as reduction in inflammatory cell infiltration in skin at 10 mg/kg, ip administered thrice at 1, 24 and 48 hrs post-infection measured after 14 days in presence of polymyxin B by H and E staining based analysis; assay type: functional, organism-based; settings: time 14.0 day
Staphylococcus aureus [12] = experiment: Synergistic antibacterial activity against methicillin-resistant Staphylococcus aureus ATCC 33591 assessed as fractional inhibitory concentration index upto 2 times MIC incubated for 18 to 24 hrs in presence of imipenem by checkerboard assay; assay type: functional; settings: time 18-24 hrs
Staphylococcus aureus [13] = experiment: Antibacterial activity against methicillin-resistant Staphylococcus aureus ATCC 33591 infected in Balb/c mouse model of acute systemic infection assessed as reduction in alveolar contraction in lung at 10 mg/kg, ip measured after 5 days by H and E staining based analysis; assay type: functional, organism-based; settings: time 5.0 day
Staphylococcus aureus [14] = experiment: Antibacterial activity against Staphylococcus aureus ATCC 29213 incubated for 18 to 24 hrs by broth microdilution method; assay type: functional; settings: time 18-24 hrs
Staphylococcus aureus [15] = experiment: Synergistic antibacterial activity against methicillin-resistant Staphylococcus aureus ATCC 33591 assessed as fractional inhibitory concentration index upto 2 times MIC incubated for 18 to 24 hrs in presence of ciprofloxacin by checkerboard assay; assay type: functional; settings: time 18-24 hrs
Staphylococcus aureus [16] = experiment: Antibacterial activity against polymyxin B-resistant Staphylococcus aureus ATCC 25923 incubated for 18 to 24 hrs; assay type: functional; settings: time 18-24 hrs
Staphylococcus aureus [17] = experiment: Antibacterial activity against methicillin-resistant Staphylococcus aureus ATCC 33591 infected in Balb/c mouse model of skin wound infection assessed as reduction in IL-1beta activity in skin at 10 mg/kg, ip administered thrice at 1, 24 and 48 hrs post-infection measured after 14 days in presence of polymyxin B by IHC analysis; assay type: functional, organism-based; settings: time 14.0 day
Staphylococcus aureus [18] = experiment: Anti-biofilm activity against methicillin-resistant Staphylococcus aureus ATCC 33591 at 8 uM incubated for 24 hrs by MTT assay; assay type: functional, organism-based
Staphylococcus aureus [19] = experiment: Antibacterial activity against methicillin-resistant Staphylococcus aureus ATCC 33591 infected in Balb/c mouse model of acute systemic infection assessed as reduction in bleeding in liver at 10 mg/kg, ip measured after 5 days by H and E staining based analysis; assay type: functional, organism-based; settings: time 5.0 day
Staphylococcus aureus [20] = experiment: Antibacterial activity against methicillin-resistant Staphylococcus aureus ATCC 33591 infected in Balb/c mouse model of acute systemic infection assessed as reduction in bleeding in heart at 10 mg/kg, ip measured after 5 days by H and E staining based analysis; assay type: functional, organism-based; settings: time 5.0 day
Staphylococcus aureus [21] = experiment: Antibacterial activity against methicillin-resistant Staphylococcus aureus ATCC 33591 infected in Balb/c mouse model of acute systemic infection assessed as reduction in cell swelling in liver at 10 mg/kg, ip measured after 5 days by H and E staining based analysis; assay type: functional, organism-based; settings: time 5.0 day
Staphylococcus aureus [22] = experiment: Induction of cytoplasmic membrane depolarization in methicillin-resistant Staphylococcus aureus ATCC 33591 incubated upto 20 mins by DiSC3-5 dye based analysis; assay type: functional, organism-based
[23] = Stability in mouse serum assessed as half life measured upto 96 hrs by RP-HPLC analysis; assay type: ADME, cell-free
Staphylococcus aureus [24] = experiment: Antibacterial activity against methicillin-resistant Staphylococcus aureus ATCC 33591 infected in Balb/c mouse model of skin wound infection assessed as crusted back wound at 10 mg/kg, ip administered thrice at 1, 24 and 48 hrs post-infection measured after 9 days in presence of polymyxin B relative to control; assay type: functional; settings: time 9 day
[25] = Toxicity in Balb/c mouse assessed as change in key organs appearance at 20 to 40 mg/kg, ip measured after 7 days; assay type: organism-based; settings: in vivo, 168 h, dose 20-40 mg/kg, time 7 day
Staphylococcus aureus [26] = experiment: Antibacterial activity against methicillin-resistant Staphylococcus aureus ATCC 33591 infected in Balb/c mouse model of acute systemic infection assessed as tissue damage repair at 10 mg/kg, ip measured after 5 days in presence of polymyxin B by H and E staining based analysis; assay type: functional, organism-based; settings: time 5.0 day
Staphylococcus aureus [27] = experiment: Induction of ROS production in methicillin-resistant Staphylococcus aureus ATCC 33591 at 4 times MIC measured upto 360 mins in presence of NAC by DCFH-DA dye based analysis; assay type: functional, organism-based
Staphylococcus aureus [28] = experiment: Antibacterial activity against gentamicin-resistant Staphylococcus aureus ATCC 25923 incubated for 18 to 24 hrs; assay type: functional; settings: time 18-24 hrs
Staphylococcus aureus [29] = experiment: Antibacterial activity against methicillin-resistant Staphylococcus aureus ATCC 33591 incubated for 18 to 24 hrs in presence of 0.5 mg/ml of trypsin by broth microdilution method; assay type: functional; settings: time 18-24 hrs
Staphylococcus aureus [30] = experiment: Inhibition of gentamicin-induced drug resistance in Staphylococcus aureus ATCC 25923 at sub-MIC measured upto 15 passages; assay type: functional, organism-based
[31] = Toxicity in Balb/c mouse assessed as spleen pigmentation at 80 mg/kg, ip measured after 7 days; assay type: organism-based; settings: in vivo, 168 h, time 7 day
[32] = Toxicity in Balb/c mouse assessed as inflammatory cell infiltration in liver at 80 mg/kg, ip measured after 7 days by H and E staining based analysis; assay type: organism-based; settings: in vivo, 168 h, time 7 day
Staphylococcus aureus [33] = experiment: Antibacterial activity against methicillin-resistant Staphylococcus aureus ATCC 33591 incubated for 18 to 24 hrs in presence of 2 mg/ml of pepsin by broth microdilution method; assay type: functional; settings: time 18-24 hrs

For `CCCCCCCCCCCC(=O)N[C@H](CCCNC(=N)N)C(=O)N[C@H](CCCNC(=N)N)C(=O)N[C@H](Cc1c[nH]c2ccccc12)C(=O)O`, the Activity (Staphylococcus aureus [1]) was “Active”, the HC10 [2] was 64 µM and the Activity (Staphylococcus aureus [3]) was “Not active; Compound Exerted Slightly More Severe Than Compound Treatment Alone”. For the same compound, the Activity (Staphylococcus aureus [4]) was “Active”, the inhibition (Staphylococcus aureus [5]) was “Active” and the inhibition (Staphylococcus aureus [6]) was “Active”. The inhibition (Staphylococcus aureus [7]) was “Active”, the MIC (Staphylococcus aureus [8]) was 8 µM (≈ 5.59 µg/mL) and the Activity (Staphylococcus aureus [9]) was “inactive”. The MIC (Enterococcus faecalis) was 8 µM (≈ 5.59 µg/mL), the Activity [10] was “Toxic” and the Activity (Staphylococcus aureus [11]) was “Active”. The “fractional inhibitory concentration index (FICI)” value (Staphylococcus aureus [12]) was 0.25, the Activity (Staphylococcus aureus [13]) was “Active” and the MIC (Staphylococcus aureus [14]) was 4 µM (≈ 2.8 µg/mL). The “fractional inhibitory concentration index (FICI)” value (Staphylococcus aureus [15]) was 0.75, the MIC (Staphylococcus aureus [16]) was 4 µM (≈ 2.8 µg/mL) and the Activity (Staphylococcus aureus [17]) was “Active”. The Activity (Staphylococcus aureus [18]) was “Active; Compound Activity Was Slightly Weaker Than Vancomycin But Significantly Better Than Polymyxin B, Imipenem, Ciprofloxacin And Gentamicin”, the Activity (Staphylococcus aureus [19]) was “Active” and the Activity (Staphylococcus aureus [20]) was “Active”. The Activity (Staphylococcus aureus [21]) was “Active”, the Activity (Staphylococcus aureus [22]) was “Dose-dependent-effect; Compound Activity Was Slightly Weaker Than Triton X-100” and the half-life [23] was greater than 48 h. For the same compound, the Activity (Staphylococcus aureus [24]) was 100%, the Activity [25] was “Non-toxic” and the Activity (Staphylococcus aureus [26]) was “Active; Compound In Combination Exerted Better Activity Than Polymyxin B Treatment Alone”. The Activity (Staphylococcus aureus [27]) was “inactive”, the MIC (Staphylococcus aureus [28]) was 8 µM (≈ 5.59 µg/mL) and the MIC (Staphylococcus aureus [29]) was 4 µM. The inhibition (Staphylococcus aureus [30]) was “Active”, the Activity [31] was “Toxic” and the Activity [32] was “Toxic”. For the same compound, the MIC (Staphylococcus aureus [33]) was 8 µM.
